Patent publication US20260265227A1, “AMIDE PRODRUGS AND USES THEREOF” (Autobahn Therapeutics, Inc., priority 2022, published 2026)

Target: T1, recombinant human FAAH (rhFAAH) (Homo sapiens, UniProt O00519)
T1 construct: purchased Cayman Chemical (Ann Arbor, MI, USA)
T1 sequence (O00519 1-579): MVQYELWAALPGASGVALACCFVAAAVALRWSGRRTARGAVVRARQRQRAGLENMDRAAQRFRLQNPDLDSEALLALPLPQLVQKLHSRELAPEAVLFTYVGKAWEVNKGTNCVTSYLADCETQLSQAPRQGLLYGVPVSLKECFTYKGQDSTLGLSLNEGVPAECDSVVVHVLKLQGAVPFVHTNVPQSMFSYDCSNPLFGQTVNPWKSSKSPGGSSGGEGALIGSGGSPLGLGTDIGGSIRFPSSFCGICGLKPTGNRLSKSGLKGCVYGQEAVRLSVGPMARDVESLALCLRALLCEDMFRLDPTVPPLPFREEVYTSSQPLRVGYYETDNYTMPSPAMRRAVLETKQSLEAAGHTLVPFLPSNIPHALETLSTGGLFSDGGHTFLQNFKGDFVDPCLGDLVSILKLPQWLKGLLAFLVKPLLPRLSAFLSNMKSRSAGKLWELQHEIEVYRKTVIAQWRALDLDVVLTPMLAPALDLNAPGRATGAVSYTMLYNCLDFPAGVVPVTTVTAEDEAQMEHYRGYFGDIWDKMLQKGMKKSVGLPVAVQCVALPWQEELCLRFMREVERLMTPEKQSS
Assay: FAAH Substrate Evaluation (formation of acid metabolite from amide prodrug)
Assay type: biochemical
Conditions: 0.5 ng/μL rhFAAH, 1 μM test compound, Tris-EDTA buffer pH 8.0, 0.1% BSA, room temperature, 0-60 minutes, LC-MS/MS
Description: Purified recombinant human FAAH (rhFAAH) was purchased from Cayman Chemical (Ann Arbor, MI, USA). The total volume for each incubation was 400 μL containing a final 0.5 ng/μL rhFAAH, 1 μM test compound, 1.25% ethanol or 1 μM PF-3845 (FAAH inhibitor), and 0.1% bovine serum albumin in Tris-EDTA buffer at pH 8.0). The positive control was LL-341001. The incubation was conducted at the room temperature. At 0, 5, 15, 30 and 60 minutes, an aliquot of 30 μL reaction mixtures was removed and mixed with 300 μL acetonitrile containing 5 ng/mL terfenadine and 10 ng/ml tolbutamide as internal standards to quench the reaction. The resulting mixture was centrifuged at 4000 rpm, 4° C. for 15 minutes, and 100 μL supernatant was ready for LC-MS/MS analysis to measure the formation of acid metabolite.
Acquity Ultra Performance LC system from Waters was used for sample analysis. The chromatography was performed on a reverse phase Kinetex 2.6 μm C18 column, 2.1×30 mm, 100 Å. The mobile phase A comprised of 0.1% formic acid in water and mobile phase B comprised of 0.1% formic acid in acetonitrile with a 2-min run time at the flow rate of 0.8 mL/min for the acid metabolite from positive control or a 1.5 min run time at the flow rate of 0.9 mL/min for the acid metabolite of test compounds. The mass spectrometer (API-5500 and API Q Trap 4000 Applied Biosystems/MDS SCIEX Instruments, Framingham, MA, USA) was operated under ESI positive or negative ion MRM mode.
The formation of acid metabolite was monitored and quantified using one calibration point of 1 μM. The observed rate constant (ke) for the acid metabolite formation was calculated by plotting the metabolite concentration versus time of incubation with the slope being ke and is shown in Table 1.

C[C@H]1Cc2cc(OCCCC(F)(F)F)ccc2C=C1CN1CC(C(=O)NCCC(F)(F)F)C1 [Compound 25, (S)-1-((3-methyl-6-(4,4,4-trifluorobutoxy)-3,4-dihydronaphthalen-2-yl)methyl)-N-(3,3,3-trifluoropropyl) azetidine-3-carboxamide]
ke (observed rate constant for the acid metabolite formation): A (ke is more than or equal to 1.0)
